Experiments:
[1] = test system: wild type virus (IIIB); assay: HIV-AVE-MT4-MTT cellular assay, wild type virus (IIIB); type: cell-based; settings: MT4 cells, MTT; for HIV-AVE-MT4-MTT-IIIB-2-002 pEC50: wild type virus (IIIB); for EC50: Human immunodeficiency virus 1, IIIB, MT4, wild type virus (IIIB), read-out: HIV-AVE-MT4-MTT-IIIB-2-002 pEC50 (converted)
Protocol: (§1) HIV- or mock-infected MT4 cells were incubated for five days in the presence of various concentrations of the inhibitor. At the end of the incubation period, all HIV-infected cells have been killed by the replicating virus in the control cultures in the absence of any inhibitor. Cell viability is measured by measuring the concentration of MTT, a yellow, water soluble tetrazolium dye that is converted to a purple, water insoluble formazan in the mitochondria of living cells only. Upon solubilization of the resulting formazan crystals with isopropanol, the absorbance of the solution is monitored at 540 nm. The values correlate directly to the number of living cells remaining in the culture at the completion of the five day incubation. The inhibitory activity of the compound was monitored on the virus-infected cells and was expressed as EC50 and EC90. These values represent the amount of the compound required to protect 50% and 90%, respectively, of the cells from the cytopathogenic effect of the virus. The toxicity of the compound was measured on the mock-infected cells and was expressed as CC50, which represents the concentration of compound required to inhibit the growth of the cells by 50%. The selectivity index (SI) (ratio CC50/EC50) is an indication of the selectivity of the anti-HIV activity of the inhibitor.

[2] = test system: virus strain F (R13025); assay: microbe, parasite or virus in culture; type: cell-based, HIV; settings: for EC50: Human immunodeficiency virus 1, MT4, read-out: HIV-AVE-MT4-MTT-R13025-2-002 pEC50, virus strain F (R13025), MT4 cells, MTT (converted); for HIV-AVE-MT4-MTT-R13025-2-002 pEC50: virus strain F (R13025), MT4 cells
Protocol: as §1, with “At the end of the incubation period, all HIV-infected cells have been killed by the replicating virus in the control cultures in the absence of any inhibitor.” left out
(§2) Because of the increasing emergence of drug resistant HIV strains, the present compounds were tested for their potency against clinically isolated HIV strains harboring several mutations.
(§3) As a measure of the broad spectrum activity of the present compounds, the fold resistance (FR) defined as FR=EC50(mutant strain)/EC50(HIV-1 strain LAI).

[3] = test system: virus strain S (R13080); assay: microbe, parasite or virus in culture; type: cell-based, HIV; settings: Human immunodeficiency virus 1, MT4, read-out: HIV-AVE-MT4-MTT-R13080-2-002 pEC50, virus strain S (R13080), MT4 cells, MTT (converted)
Protocol: as §1, with “At the end of the incubation period, all HIV-infected cells have been killed by the replicating virus in the control cultures in the absence of any inhibitor.” left out
as §2, §3

Row | EC50 [1] [nM] | Structure (SMILES) | HIV-AVE-MT4-MTT-IIIB-2-002 pEC50 [1] | EC50 [2] [nM] | EC50 [3] [nM] | HIV-AVE-MT4-MTT-R13025-2-002 pEC50 [2]
1 | 240 | CC(C)CN(C[C@@H](O)[C@H](Cc1ccccc1)NC(=O)O[C@@H]1COC2OCCNC21)S(=O)(=O)c1ccc2nc(NCCN3CCCC3)sc2c1 (stereo partly drawn) [Compound 101] |  |  |  | 
2 | 66.1 | CC(=O)Nc1nc2ccc(S(=O)(=O)N(CC(C)C)C[C@@H](O)[C@H](Cc3ccccc3)NC(=O)COc3c(C)cc([N+](=O)[O-])cc3C)cc2s1 [Compound 104] |  |  |  | 
3 | 302 | CC(C)CN(C[C@@H](O)[C@H](Cc1ccccc1)NC(=O)OC(C)(C)C)S(=O)(=O)c1ccc2nc(NCc3ccccn3)sc2c1 [Compound 118] |  |  |  | 
4 | 1200 | CC(C)CN(C[C@@H](O)[C@H](Cc1ccccc1)NC(=O)OC(C)(C)C)S(=O)(=O)c1ccc2nc(N3CCOCC3)sc2c1 [Compound 122] |  |  |  | 
5 | 1580 | CC(C)CN(C[C@@H](O)[C@H](Cc1ccccc1)NC(=O)OC(C)(C)C)S(=O)(=O)c1ccc2nc(N(C)CCN3CCCC3)sc2c1 [Compound 123] |  |  |  | 
6 | 2000 | CC(C)CN(C[C@@H](O)[C@H](Cc1ccccc1)NC(=O)OC(C)(C)C)S(=O)(=O)c1ccc2nc(N(C)CCCN3CCCC3)sc2c1 [Compound 124] |  |  |  | 
7 | 63.1 | Cc1cccc(C)c1OCC(=O)N[C@@H](Cc1ccccc1)[C@H](O)CN(CC(C)C)S(=O)(=O)c1ccc2nc(NCc3ccccn3)sc2c1 [Compound 129] |  |  |  | 
8 | 58.9 | Cc1cccc(C)c1OCC(=O)N[C@@H](Cc1ccccc1)[C@H](O)CN(CC(C)C)S(=O)(=O)c1ccc2nc(NCc3cccnc3)sc2c1 [Compound 130] |  |  |  | 
9 | 1700 | Cc1cccc(C)c1OCC(=O)N[C@@H](Cc1ccccc1)[C@H](O)CN(CC(C)C)S(=O)(=O)c1ccc2nc(N(C)CCN3CCOCC3)sc2c1 [Compound 137] |  |  |  | 
10 | 1450 | Cc1cccc(C)c1OCC(=O)N[C@@H](Cc1ccccc1)[C@H](O)CN(CC(C)C)S(=O)(=O)c1ccc2nc(N(C)CCCN3CCCC3)sc2c1 [Compound 138] |  |  |  | 
11 | 339 | Cc1cccc(C)c1OCC(=O)N[C@@H](Cc1ccccc1)[C@@H](CN(CC(C)C)S(=O)(=O)c1ccc2nc(NC(=O)c3ccccc3)sc2c1)OC(=O)c1ccncc1 [Compound 147] |  |  |  | 
12 | 51.3 | CC(C)CN(C[C@@H](O)[C@H](Cc1ccccc1)NC(=O)OCc1cncs1)S(=O)(=O)c1ccc2nc(NCCN(C)C(=O)OC(C)(C)C)sc2c1 [Compound 149] |  |  |  | 

The remaining lines, values behind:

Row | Structure (SMILES) | EC50 [1] [nM] | HIV-AVE-MT4-MTT-IIIB-2-002 pEC50 [1] | EC50 [2] [nM] | EC50 [3] [nM] | HIV-AVE-MT4-MTT-R13025-2-002 pEC50 [2]
13 | CC(C)CN(C[C@@H](O)[C@H](Cc1ccccc1)NC(=O)[C@@H](NC(=O)CNCc1cccc(F)c1)C(C)(C)C)S(=O)(=O)c1ccc2nc(NCCN3CCCC3)sc2c1.O=C(O)C(F)(F)F.O=C(O)C(F)(F)F [Compound 85, N′-[(3-fluorophenyl)methyl]glycyl-N-[(1S,2R)-2-hydroxy-3-[(2-methylpropyl)[[2-[2-(pyrrolidin-1-yl)ethylamino]benzothiazol-6-yl]sulfonyl]amino]-1-(phenylmethyl)propyl]-3-methyl-L-Valinamide, bis-trifluoroacetate] |  | 7.24 |  |  | 
14 | CC(C)CN(C[C@@H](O)[C@H](Cc1ccccc1)NC(=O)O[C@H]1CCOC1)S(=O)(=O)c1ccc2nc(NC(=O)CN3CCCC3)sc2c1 [Compound 100] | 1.32 |  | 43.7 | 70.8 | 
15 | CC(=O)Nc1nc2ccc(S(=O)(=O)N(CC(C)C)C[C@@H](O)[C@H](Cc3ccccc3)NC(=O)COc3ccon3)cc2s1 [Compound 102] | 12 |  | 132 | 955 | 
16 | CC(C)CN(C[C@@H](O)[C@H](Cc1ccccc1)NC(=O)O[C@H]1CO[C@H]2OCC[C@H]21)S(=O)(=O)c1ccc2nc(N(C)CCCN(C)C)sc2c1 [Compound 103] | 20 |  | 174 | 525 | 
17 | CC(=O)Nc1nc2ccc(S(=O)(=O)N(CC(C)C)C[C@@H](O)[C@H](Cc3ccccc3)NC(=O)COc3c(C)cc(C)cc3C)cc2s1 [Compound 105] | 46.8 |  | 56.2 | 479 | 
18 | CC(C)CN(C[C@@H](O)[C@H](Cc1ccccc1)NC(=O)O[C@H]1CO[C@H]2OCC[C@H]21)S(=O)(=O)c1ccc2nc(N3CCNC3=O)sc2c1 [Compound 106] | 11 |  | 55 | 219 | 
19 | CC(C)CN(C[C@@H](O)[C@H](Cc1ccccc1)NC(=O)O[C@H]1CO[C@H]2OCC[C@H]21)S(=O)(=O)c1ccc2nc(N3CCN(C)CC3)sc2c1 [Compound 107] | 2 |  | 158 | 661 | 
20 | CC(C)CN(C[C@@H](O)[C@H](Cc1ccccc1)NC(=O)O[C@H]1CO[C@H]2OCC[C@H]21)S(=O)(=O)c1ccc2nc(N(C)CCCN3CCCC3)sc2c1 [Compound 108] | 24.5 |  | 288 | 813 | 
21 | Cc1cccc(C)c1OCC(=O)N[C@@H](Cc1ccccc1)[C@H](O)CN(CC(C)C)S(=O)(=O)c1ccc2nc(N(C)CCCN(C)C)sc2c1 [Compound 109] | 2090 |  | 4170 |  | 
22 | CC(C)CN(C[C@@H](O)[C@H](Cc1ccccc1)NC(=O)O[C@H]1CO[C@H]2OCC[C@H]21)S(=O)(=O)c1ccc2nc(N(C)CCN3CCCC3)sc2c1 [Compound 110] | 8.13 |  | 676 | 1550 | 
23 | Cc1cccc(C)c1OCC(=O)N[C@@H](Cc1ccccc1)[C@H](O)CN(CC(C)C)S(=O)(=O)c1ccc2nc(NC(=O)c3cccnc3)sc2c1 [Compound 111] | 24.5 |  | 234 | 661 | 
24 | Cc1cccc(C)c1OCC(=O)N[C@@H](Cc1ccccc1)[C@H](O)CN(CC(C)C)S(=O)(=O)c1ccc2nc(NC(=O)c3ccccn3)sc2c1 [Compound 112] |  | 8 |  | 151 | 6.91
25 | Cc1cccc(C)c1OCC(=O)N[C@@H](Cc1ccccc1)[C@H](O)CN(CC(C)C)S(=O)(=O)c1ccc2nc(NC(=O)c3cc(O)cc(O)c3)sc2c1 [Compound 113] | 5.13 |  | 24.5 | 43.7 | 
26 | Cc1cccc(C)c1OCC(=O)N[C@@H](Cc1ccccc1)[C@H](O)CN(CC(C)C)S(=O)(=O)c1ccc2nc(NC(=O)C3CC(=O)N(Cc4ccco4)C3)sc2c1 (stereo partly drawn) [Compound 114] | 20.4 |  | 33.9 | 141 | 
27 | Cc1cccc(C)c1OCC(=O)N[C@@H](Cc1ccccc1)[C@H](O)CN(CC(C)C)S(=O)(=O)c1ccc2nc(N(C)CCN3CCCC3)sc2c1 [Compound 115] | 759 |  | 6170 | 10000 | 
28 | COc1cc(C(=O)Nc2nc3ccc(S(=O)(=O)N(CC(C)C)C[C@@H](O)[C@H](Cc4ccccc4)NC(=O)COc4c(C)cccc4C)cc3s2)cc(OC)c1O [Compound 116] | 31.6 |  | 32.4 | 43.7 | 
29 | CC(C)CN(C[C@@H](O)[C@H](Cc1ccccc1)NC(=O)OC(C)(C)C)S(=O)(=O)c1ccc2nc(NCc3ccccn3)sc2c1 [Compound 119] |  | 6.48 |  |  | 
30 | CC(C)CN(C[C@@H](O)[C@H](Cc1ccccc1)NC(=O)OC(C)(C)C)S(=O)(=O)c1ccc2nc(NCCc3ccccn3)sc2c1 [Compound 120] | 316 |  |  |  | 
31 | Cc1cccc(C)c1OCC(=O)N[C@@H](Cc1ccccc1)[C@H](O)CN(CC(C)C)S(=O)(=O)c1ccc2nc(NCCc3ccccn3)sc2c1 [Compound 132] | 64.6 |  |  |  | 
32 | Cc1cccc(C)c1OCC(=O)N[C@@H](Cc1ccccc1)[C@H](O)CN(CC(C)C)S(=O)(=O)c1ccc2nc(NCC3CCCO3)sc2c1 (stereo partly drawn) [Compound 134] | 61.7 |  |  |  | 
33 | COC(=O)CCNc1nc2ccc(S(=O)(=O)N(CC(C)C)C[C@@H](O)[C@H](Cc3ccccc3)NC(=O)COc3c(C)cccc3C)cc2s1 [Compound 135] | 66.1 |  |  |  | 
34 | Cc1cccc(C)c1OCC(=O)N[C@@H](Cc1ccccc1)[C@H](O)CN(CC(C)C)S(=O)(=O)c1ccc2nc(N3CCOCC3)sc2c1 [Compound 136] | 724 |  |  |  | 
35 | Cc1cccc(C)c1OCC(=O)N[C@@H](Cc1ccccc1)[C@H](O)CN(CC(C)C)S(=O)(=O)c1ccc2nc(NC(=O)c3ccccn3)sc2c1 [Compound 140] |  | 8.34 |  |  | 8.12
36 | CC(C)CN(C[C@@H](O)[C@H](Cc1ccccc1)NC(=O)OC(C)(C)C)S(=O)(=O)c1ccc2nc(N3CCC[C@@H]3C(=O)O)sc2c1 [Compound 142] | 5620 |  |  |  | 
